Measured values: US6503935B1, “Imidazoles and related compounds as α1A agonists” (Abbott Laboratories, priority 1998, dated 2003)
Structures can show the parent of a compound that is named as a salt. Where two headings read alike, the source gives them in different places.

Key:
[1] = target: T1, α1b (hamster receptor expressed in mouse fibroblasts) (Mesocricetus auratus, UniProt P18841); assay: Radioligand binding with [3H]-prazosin, α1b; details: read-out: Radioligand Binding Ki α1b (Hamster)
T1 construct: expressed in transfected cells; host or cells: mouse fibroblasts
T1 sequence (P18841 1-515): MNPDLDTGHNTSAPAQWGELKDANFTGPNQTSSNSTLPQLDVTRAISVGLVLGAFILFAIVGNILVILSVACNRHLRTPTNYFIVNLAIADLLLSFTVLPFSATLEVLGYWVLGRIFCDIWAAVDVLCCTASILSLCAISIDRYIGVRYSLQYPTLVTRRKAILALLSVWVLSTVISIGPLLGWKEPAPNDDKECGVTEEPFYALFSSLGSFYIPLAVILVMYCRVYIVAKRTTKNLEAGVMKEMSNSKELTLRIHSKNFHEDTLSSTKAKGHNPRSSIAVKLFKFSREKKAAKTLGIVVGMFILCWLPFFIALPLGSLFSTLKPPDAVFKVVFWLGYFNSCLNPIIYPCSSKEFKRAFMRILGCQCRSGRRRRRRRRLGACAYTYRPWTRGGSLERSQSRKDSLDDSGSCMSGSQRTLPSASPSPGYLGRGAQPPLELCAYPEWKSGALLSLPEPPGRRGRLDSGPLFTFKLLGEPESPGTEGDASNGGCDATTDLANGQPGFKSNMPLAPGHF
Summary of the method: (§1)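 Radioligand binding with [3H]-prazosin: α1A from rat submaxillary gland; α1b hamster receptor and α1d rat receptor, each expressed in mouse fibroblasts.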

[2] = target: T2, α1d (rat receptor expressed in mouse fibroblasts) (Rattus norvegicus, UniProt P23944); assay: Radioligand binding with [3H]-prazosin, α1d; details: read-out: Radioligand Binding Ki α1d (Rat)
T2 construct: expressed in transfected cells; host or cells: mouse fibroblasts
T2 sequence (P23944 1-561): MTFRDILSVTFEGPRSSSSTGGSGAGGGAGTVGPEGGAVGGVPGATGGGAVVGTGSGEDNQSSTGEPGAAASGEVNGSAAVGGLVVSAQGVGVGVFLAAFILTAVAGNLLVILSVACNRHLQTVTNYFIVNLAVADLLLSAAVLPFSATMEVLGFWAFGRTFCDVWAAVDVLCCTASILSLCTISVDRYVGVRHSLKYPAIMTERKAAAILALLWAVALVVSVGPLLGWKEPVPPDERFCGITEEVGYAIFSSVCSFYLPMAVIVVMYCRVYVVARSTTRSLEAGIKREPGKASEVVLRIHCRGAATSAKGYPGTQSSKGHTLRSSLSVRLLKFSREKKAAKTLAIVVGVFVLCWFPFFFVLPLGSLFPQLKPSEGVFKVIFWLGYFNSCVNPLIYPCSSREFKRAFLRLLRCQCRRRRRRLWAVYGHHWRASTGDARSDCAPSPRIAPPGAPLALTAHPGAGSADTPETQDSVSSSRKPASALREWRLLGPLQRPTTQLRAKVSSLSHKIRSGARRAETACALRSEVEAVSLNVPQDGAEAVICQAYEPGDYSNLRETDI
Summary of the method: as §1

[3] = target: T3, α1A (rat epididymal vas deferens) (Rattus norvegicus, UniProt P43140); assay: cell-based; details: rat epididymal vas deferens (values marked *); read-out: Agonist Tissue Response (pD2) α1A, test performed using rat epididymal vas deferens (converted)
T3 sequence (P43140 1-466): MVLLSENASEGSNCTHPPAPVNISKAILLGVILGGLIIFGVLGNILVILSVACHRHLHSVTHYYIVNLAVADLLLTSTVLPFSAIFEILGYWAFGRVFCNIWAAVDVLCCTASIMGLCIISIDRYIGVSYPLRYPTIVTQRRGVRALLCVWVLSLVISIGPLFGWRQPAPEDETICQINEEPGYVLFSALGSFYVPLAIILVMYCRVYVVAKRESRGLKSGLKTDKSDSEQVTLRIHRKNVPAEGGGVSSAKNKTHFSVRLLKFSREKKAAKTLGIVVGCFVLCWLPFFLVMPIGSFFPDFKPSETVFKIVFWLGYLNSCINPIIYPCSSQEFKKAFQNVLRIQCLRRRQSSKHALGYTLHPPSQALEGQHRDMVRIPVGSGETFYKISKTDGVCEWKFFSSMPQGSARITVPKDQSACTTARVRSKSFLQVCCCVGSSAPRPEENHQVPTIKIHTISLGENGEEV

[4] = target: T4, α1A (rat submaxillary gland) (Rattus norvegicus, UniProt P43140); assay: Radioligand binding with [3H]-prazosin, α1A
T4 construct: α1A (rat submaxillary gland); from tissue; host or cells: rat submaxillary gland
T4 sequence (P43140 1-466): T3 sequence (P43140 1-466)
Summary of the method: as §1

[5] = target: T5, α1B (rat spleen) (Rattus norvegicus, UniProt P15823); assay: Agonist contraction of smooth muscle tissue, rat spleen; assay type: cell-based; details: read-out: Agonist Tissue Response (pD2) α1B (rat spleen) (converted)
T5 construct: α1B (rat spleen) and α1D (rat aorta) receptors; from tissue; host or cells: rat spleen
T5 sequence (P15823 1-515): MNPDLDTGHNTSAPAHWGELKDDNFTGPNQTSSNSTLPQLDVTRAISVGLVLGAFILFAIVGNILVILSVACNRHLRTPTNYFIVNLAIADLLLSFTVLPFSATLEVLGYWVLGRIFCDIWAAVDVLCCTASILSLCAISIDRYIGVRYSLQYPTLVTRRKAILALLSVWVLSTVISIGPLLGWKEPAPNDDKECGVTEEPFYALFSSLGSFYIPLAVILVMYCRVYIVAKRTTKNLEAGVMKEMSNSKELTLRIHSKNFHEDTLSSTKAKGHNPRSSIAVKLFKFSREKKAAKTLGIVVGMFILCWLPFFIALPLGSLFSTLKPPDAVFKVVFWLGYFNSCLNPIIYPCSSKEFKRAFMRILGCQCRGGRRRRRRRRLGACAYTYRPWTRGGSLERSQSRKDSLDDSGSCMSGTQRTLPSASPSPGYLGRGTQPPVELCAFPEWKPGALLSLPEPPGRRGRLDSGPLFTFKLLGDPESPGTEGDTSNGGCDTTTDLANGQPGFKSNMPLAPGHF

[6] = target: T6, α1D (rat aorta) (Rattus norvegicus, UniProt P23944); assay: Agonist contraction of smooth muscle tissue, rat aorta; assay type: cell-based; details: read-out: Agonist Tissue Response (pD2) α1D (rat aorta) (converted)
T6 construct: α1B (rat spleen) and α1D (rat aorta) receptors; from tissue; host or cells: rat aorta strips, endothelium removed
T6 sequence (P23944 1-561): T2 sequence (P23944 1-561)

[7] = system: Anesthetized Dogs; assay: Urethral pressure profile in anesthetized dogs; assay type: in vivo, dog; details: increasing iv doses, FIG. 1
From the text: Assessment of Urethral Pressure Profile in Anesthetized Dogs
Dogs instrumented and anesthetized as decribed above were placed in left lateral recumbency and a dual pressure sensor catheter (SPC-771, Millar Instruments, Houston, Tex.) was inserted into the urethra and advanced into the bladder. The proximal pressure sensor was interfaced to a MI2 computerized data acquisition system for the measurement of lower urinary tract pressures. At a resting intravesical pressure of approximately 5 cm of H2O, urethral pressure was measured from the sensor as the catheter was withdrawn using a modified syringe pump (Model 22, Harvard Apparatus, South Natick, Mass.) at its maximal rate of 0.83 mm/sec. Measurement from the proximal sensor allowed easy reinsertion as the distal 5 cm of the catheter remains in the urethra after the total profile has been obtained. Three resting urethral pressure profiles were obtained at 5 minute intervals before dosing, then a single profile was initiated 30 sec after each increasing iv dose during the time corresponding to the maximum arterial pressure effects of that dose. The increase in arterial pressure seen after each agonist dose was allowed to return to baseline before the next dose was given.

[8] = system: Anesthetized Dogs; assay: Intraurethral pressure (IUP) in anesthetized dogs; assay type: in vivo, dog; details: Canis lupus familiaris; iv dose causing a maximum increase in IUP of 5 mm Hg, anesthetized female dogs; read-out: Mean IUP ED5
[9] = system: Anesthetized Dogs; assay: Mean arterial pressure (MAP) in anesthetized dogs; assay type: in vivo, dog; details: iv dose causing a maximum increase in MAP of 20 mm Hg, anesthetized female dogs
From the text: In vivo Functional Assays-Assessment of Intrurethral Pressure (IUP) and Mean Arterial Pressure (MAP) in Anesthetized Dogs
Female dogs (Marshall Farms, North Rose, N.Y.) greater that 2 years of age and weighing between 12 and 15 kg were used in these studies. At least 2 weeks prior to any agonist dosing, dogs were instrumented for the chronic measurement of arterial blood pressure by implanting a telemetry transducer/transmitter (TA11PA-C40, Data Sciences International, St. Paul, Minn.) into a carotid artery.
On the test day, dogs fasted since the previous afternoon were pre-anesthetized with thiopental sodium 15 mg/kg i.v. (Pentothal™, Abbott) and intubated. Anesthesia was maintained by allowing the dog to spontaneously breathe a mixture of isoflurane (2.5 to 3 volume %) and oxygen delivered by a Narkomed Standard anesthesia system (North American Drager, Telford, Pa.). An Abbocath-T™ i.v. catheter (18-G, Abbott) was inserted into the cephalic vein for the administration of agonists. A telemetry receiver (RA1310, DataSciences) was placed under the head of each dog and was interfaced to a computerized data acquisition system (Modular Instruments Inc.(MI2), Malvern, Pa.) which allowed for the continuous calibrated recording of arterial blood pressure which was electronically filtered to determine its mean value (MAP).
Dogs with chronic telemetry implants anesthetized as described above were placed in dorsal recumbency and a balloon catheter was inserted into the urethral orifice and advanced approximately 15 cm until the tip was well inside the bladder. The balloon was then inflated with 1 ml of room air and the catheter slowly withdrawn until resistance (corresponding to the bladder neck) was evident. The balloon was then deflated and the catheter withdrawn an additional 2 cm. The balloon was then reinflated and its catheter port connected to a Gould Statham P23Dd pressure transducer interfaced to a computerized data acquisition system (Modular Instruments, Inc., Malvern, Pa.) for the measurement of intraurethral pressure. Increasing iv doses of test agonists were administered and the maximum effect of each dose on IUP was recorded. The effect of each dose was allowed to return to baseline before the next dose was given.
From the resulting dose response curve, an ED5 value, for the dose causing a maximum increase in IUP of 5 mm Hg, could be estimated. An ED20 value for the dose causing a maximum increase in MAP of 20 mm Hg could also be estimated. A selectivity ratio of MAP ED20 vs. IUP ED5 was calculated.

COc1ccc2c(c1NS(C)(=O)=O)CCCC2c1c[nH]cn1 (stereo not drawn) [Example 1, N-[5-(1H-imidazol-4-yl)-2-methoxy-5,6,7,8-tetrahydro-1-naphthalenyl]methanesulfonamide, hydrochloride]
Ki [1]: 1.7 µM | Ki [2]: 0.482 µM | EC50 [3]: > 1000 µM | Ki [4]: 0.5 µM | EC50 [5]: 955 µM | EC50 [6]: 5.5 µM

Cn1cncc1C1CCCc2c1ccc(O)c2NS(C)(=O)=O (stereo not drawn) [Example 4, N-[2-hydroxy-5-(1-methyl-1H-imidazol-5-yl)-5,6,7,8-tetrahydro-1-naphthalenyl]methanesulfonamide, hydrochloride]
Ki [1]: 31.6 µM | Ki [2]: 31.6 µM | EC50 [3]: 309 µM | Ki [4]: 24.6 µM | EC50 [5]: > 1000 µM | EC50 [6]: 95.5 µM

Cc1nc(C2CCCc3c2ccc(O)c3NS(C)(=O)=O)c[nH]1 (stereo not drawn) [Example 3, N-[2-hydroxy-5-(2-methyl-1H-imidazol-4-yl)-5,6,7,8-tetrahydro-1-naphthalenyl]methanesulfonamide, hydrochloride]
Ki ([1]; hamster receptor expressed in mouse fibroblasts, [3H]-prazosin): 50.4 µM | Ki ([2]; rat receptor expressed in mouse fibroblasts, [3H]-prazosin): 8.29 µM | EC50 [3]: 1.95 µM | Ki ([4]; rat submaxillary gland, [3H]-prazosin): 0.991 µM | EC50 ([5]; rat spleen): 12.9 µM | EC50 ([6]; rat aorta, endothelium removed): 28.2 µM

CS(=O)(=O)Nc1cccc2c1CCCC2c1c[nH]cn1.Cl (stereo not drawn) [Example 8, N-[5-(1H-imidazol-4-yl)-5,6,7,8-tetrahydro-1-naphthalenyl]methanesulfonamide, hydrochloride]
urethral pressure profile [7]: corresponding increases in the urethral pressure | ED (5 mmHg IUP increase) [8]: 0.0255 µmol/kg | Mean MAP ED20 [9]: 102 nmol/kg
